Results: patent publication EP1210336B1, “SUBSTITUTED BENZIMIDAZOLES AS NON-NUCLEOSIDE INHIBITORS OF REVERSE TRANSCRIPTASE” (THE UNITED STATES OF AMERICA, as represented by the …, priority 1999, dated 2001)
pEC50: −log10 of the molar value. Read-outs that look alike come from different tables or passages of the source.

What was measured:
[1] = test system: WT virus (NL4-3); assay: microbe, parasite or virus in culture; assay type: cell-based, HIV-1; settings: Human immunodeficiency virus 1, NL43, CEM-SS, read-out: EC50
Experimental: Evaluation of these compounds for the inhibition of HIV-1 was determined as the fifty percent cell culture inhibitory concentration (CIC50) in CEMSS cell culture with WT virus (NL4-3).
(§1) In this Example, the antiviral and cellular toxicity of NNRTIs was investigated, using the cytopathic cell killing assay described by Yang (Yang et al., "Characteristics of a Group of Non-nucleoside Reverse Transcriptase Inhibitors with Structural Diversity and Potent Anti-Human Immunodeficiency Virus Activity," Leukemia 9:S75-S85 [1995]). Briefly, in this method cells (e.g., the CEM-SS cell line, available from the NIAID AIDS Research and Reference Program [ARRRP]) were seeded at a density of 5 x 10^3 cells/well, into the wells of a 96-well microtiter plate. The cells were then infected with HIV virus (either mutant or WT), at a multiplicity of infection (MOI) previously determined to provide complete cell killing by 6 days of culture post-infection (e.g., MOI of 0.01-0.05). Each of the HIV isolates was pre-titered to induce equivalent levels of infection based on cell killing or virus production, prior to their use in these assays. A range of test compound concentrations was added to the wells in triplicate (e.g., serial half-log dilutions) to evaluate inhibition of HIV infection. Controls for each assay included drug controls (drug colorimetric control wells), drug cytotoxicity control wells (cells with drug), virus control wells (cells with virus), and cell viability controls (cells only). Positive control drugs (e.g., AZT and ddC) were also run in parallel.
(§2) After six days of incubation at 37°C, cell viability was determined spectrophotometrically at 450 nm for each well, using the metabolic reduction of XTT to a soluble colored formazan. (See, Gartner and Popovic, "Virus Isolation and Production, in Aldovini and Walker (eds.), Techniques in HIV Research, Stockton Press, NY, pp. […] [1991]; and Nara and Fischinger, "Quantitative Infectivity Assay for HIV-1 and HIV-2," Nature 332:469-470 [1988]).
(§3) The in vitro therapeutic index (TI50) was defined as the fold-difference between the EC50 and IC50. The results for the various compounds are included in Figures 8 and 19.

[2] = test system: NL4-3 (WT); assay: Cytopathic cell killing assay, cross-resistance profile, infected MT-4 cells; assay type: cell-based, HIV-1
Source text: (§4) The various HIV isolates tested in the Figures are those corresponding to wild-type virus (NL4-3) and the other strains listed by their RT mutations. The three 4xAZT isolates included in the Figures represent AZT drug-resistant variants. For example, the 4xAZT/L100I isolate has five mutations: four mutations confer increased resistance to AZT, and the other mutation is located within the NNRTI binding pocket. TZB and nevir. (nevirapine) are two well-known NNRTIs, included in this experiment for comparison purposes. […]
as §1, §2, §3

[3] = test system: HIV-1 isolate 4xAZT/Y181C; assay: as above; assay type: cell-based; settings: isolate 4XAZT /Y181C
Source text: as §4, §1, §2, §3

[4] = test system: HIV-1 isolate 4xAZT; assay: as above; assay type: cell-based; settings: isolate 4XAZT
Source text: as §4, §1, §2, §3

[5] = test system: HIV-1 variant A98G; assay: as above; assay type: cell-based
Source text: as §4, §1, §2, §3

[6] = test system: HIV-1 variant K101E; assay: as above; assay type: cell-based
Source text: as §4, §1, §2, §3

[7] = test system: HIV-1 variant K103N; assay: as above; assay type: cell-based; settings: for pEC50: isolate K103N
Source text: as §4, §1, §2, §3

[8] = test system: HIV-1 variant L100I; assay: as above; assay type: cell-based
Source text: as §4, §1, §2, §3

[9] = test system: HIV-1 variant L74V; assay: as above; assay type: cell-based
Source text: as §4, §1, §2, §3

[10] = test system: HIV-1 variant V106A; assay: as above; assay type: cell-based
Source text: as §4, §1, §2, §3

[11] = test system: HIV-1 variant V108I; assay: as above; assay type: cell-based; settings: isolate V1081
Source text: as §4, §1, §2, §3

[12] = test system: HIV-1 variant V179D; assay: as above; assay type: cell-based; settings: isolate V179D
Source text: as §4, §1, §2, §3

[13] = test system: HIV-1 variant Y188C; assay: as above; assay type: cell-based
Source text: as §4, §1, §2, §3

[14] = test system: HIV-1 isolate 4xAZT/L100I; assay: as above; assay type: cell-based; settings: Human immunodeficiency virus 1, MT4, Table 8; isolate 4XA7T L 1001
Experimental: The various HIV isolates tested in the Figures are those corresponding to wild-type virus (NL4-3) and the other strains listed by their RT mutations. The three 4xAZT isolates included in the Figures represent AZT drug-resistant variants. […]
as §1, with “Briefly,” for “In this Example, the antiviral and cellular toxicity of NNRTIs was investigated, using the cytopathic cell killing assay described by Yang (Yang et al., "Characteristics of a Group of Non-nucleoside Reverse Transcriptase Inhibitors with Structural Diversity and Potent Anti-Human Immunodeficiency Virus Activity," Leukemia 9:S75-S85 [1995]). Briefly,”
as §2
The in vitro therapeutic index (TI50) was defined as the fold-difference between the EC50 and IC50.

[15] = test system: HIV-1 variant Y181C; assay: as above; assay type: cell-based; settings: Human immunodeficiency virus 1, MT4, Table 9; isolate Y181C
Source text: as §4, §1, §2, §3

[16] = Table 11, CEMSS/NL4-3, NRVC = reduction in viral CPE not seen (footnote)
[17] = Human immunodeficiency virus 1, NL43, MT4, Table 8, isolate N1.43
[18] = Human immunodeficiency virus 1, MT4, Table 8
[19] = Human immunodeficiency virus 1, MT4, Table 8, isolate A9SG
[20] = Human immunodeficiency virus 1, MT4, Table 8, isolate K101E
[21] = Human immunodeficiency virus 1, MT4, Table 8, isolate 1.1001
[22] = Human immunodeficiency virus 1, MT4, Table 8, isolate 1.74V
[23] = Human immunodeficiency virus 1, MT4, Table 8, isolate V 106A
[24] = Human immunodeficiency virus 1, MT4, Table 8, isolate Y 188C
[25] = Human immunodeficiency virus 1, MT4, Table 9

Row | Compound | pEC50 [1, 16] | pEC50 [2, 17] | pEC50 [3, 18] | pEC50 [4, 18] | pEC50 [5, 19] | pEC50 [6, 20] | pEC50 [7, 18] | pEC50 [8, 21] | pEC50 [9, 22] | pEC50 [10, 23] | pEC50 [11, 18] | pEC50 [12, 18] | pEC50 [13, 24] | further results
1 | CNc1cccc2c1nc(-c1c(F)cccc1F)n2Cc1c(F)cccc1F [compound 58, 1-(2,6-Difluorobenzyl)-2-(2,6-difluorophenyl)-4-(N-methylamino)-benzimidazole] | 5.77 | 5.59 | < 4.70 | < 5.00 | 5.07 | < 4.70 | < 4.70 | 6.40 | 5.41 | < 4.70 | < 4.70 | < 5.00 | < 4.70 | pEC50 ([1]; Table 7, concentration reducing cell killing or virus production by 50%, HIV-1 WT): 5.77; pEC50 [14]: 6.00
2 | Cc1ccnc2c1NC(=O)c1cccnc1N2C1CC1 [nevirapine, reference compound] | 7.46 | 7.40 | 5.52 | < 6.30 | 6.10 | 5.96 | < 5.00 | 6.70 | 7.40 | < 5.00 | 6.40 | 5.31 | < 6.30 | pEC50 ([2]; Human immunodeficiency virus 1, NL43, MT4, Table 9, isolate NL4.3): 7.40; pEC50 [3, 25]: 5.52; pEC50 [4, 25]: < 6.30; pEC50 ([5]; Human immunodeficiency virus 1, MT4, Table 9, isolate A98G): 6.10; pEC50 ([6]; Human immunodeficiency virus 1, MT4, Table 9, isolate KIOIE): 5.96; pEC50 [7, 25]: < 5.00; activity against the K103N mutation / isolate ([7]; result in words, cytopathic cell killing assay): ineffective; pEC50 ([8]; Human immunodeficiency virus 1, MT4, Table 9, isolate L1001): 6.70; pEC50 ([9]; Human immunodeficiency virus 1, MT4, Table 9, isolate 1.74 V): 7.40; pEC50 ([10]; Human immunodeficiency virus 1, MT4, Table 9, isolate V106A): < 5.00; pEC50 [11, 25]: 6.40; pEC50 [12, 25]: 6.70; pEC50 [15]: 5.31; pEC50 ([13]; Human immunodeficiency virus 1, MT4, Table 9, isolate Y188C): < 6.30
